Test results: patent US20080138411A1, “Modified Release Formulations Of Selective Serotonin Re-Uptake Inhibitors” (priority 2002, published 2008)
Structures can show the parent of a compound that is named as a salt. Where two headings read alike, the source gives them in different places. One block for each compound: values may come before it.

Columns and labels:
[1] = cited from earlier work
[2] = Particle size measurement of Citalopram HBr, Paroxetine HCl and Fluoxetine HCl; type: physicochemical; details: for D (v, 0.9) / D (v. 0.1) / Mean, D [4, 3] / Median, D (v, 0.5) / Span / Uniformity: Dispersed in air, Distribution Type: Volume
Experimental: Particle size measurements were conducted on Paroxetine HCl.

[3] = cited from earlier work; remark: listed apart in the source
[4] = cited from earlier work; remark: listed apart in the source
[5] = cited from earlier work; remark: listed apart in the source
[6] = 30 mg tablets daily for 30 days, normal male subjects
[7] = 30 mg tablets daily for 30 days
[8] = single dose with and without food

SMILES: CN(C)CCCC1(c2ccc(F)cc2)OCc2cc(C#N)ccc21 (racemic) [Citalopram, (RS)-1-[3-(dimethylamino)propyl]-1-(4-fluorophenyl)-5-phthalancarbonitrile hydrobromide]
absolute bioavailability ([1]; relative to an intravenous dose): about 80%
time at which peak blood levels occur ([1]; single oral dose (40 mg tablet)): about 4 hours

SMILES: Br.CN(C)CCCC1(c2ccc(F)cc2)OCc2cc(C#N)ccc21 (centres unmarked) [Citalopram HBr Provided by Supplier 1]
Dia.on % (10.0%) ([2]; Dist. Base: Volume): 3.267 µm
Dia.on % (20.0%) ([2]; Dist. Base: Volume): 4.606 µm
Dia.on % (35.0%) ([2]; Dist. Base: Volume): 6.212 µm
Dia.on % (70.0%) ([2]; Dist. Base: Volume): 10.295 µm
Dia.on % (90.0%) ([2]; Dist. Base: Volume): 14.874 µm
Particle size, C.V. ([2]; Dist. Base: Volume): 54.90%
Particle size, Mean ([2]; Dist. Base: Volume): 8.569 µm
Particle size, Median ([2]; Dist. Base: Volume): 7.781 µm
Particle size, Mode ([2]; Dist. Base: Volume): 8,253 µm
SP. Area ([2]; Dist. Base: Volume): 10290 cm^2/cm^2
Span: (D 20.0-D 10.0)/D50 ([2]; Dist. Base: Volume): Span: (D 20.0-D 10.0)/D50 = 0.172

SMILES: Br.CN(C)CCCC1(c2ccc(F)cc2)OCc2cc(C#N)ccc21 (centres unmarked) [Citalopram HBr Provided by Supplier 2]
D (v, 0.9) [2]: 1191.10 µm
D (v. 0.1) [2]: 1.62 µm
Mean, D [4, 3] [2]: Mean, D [4, 3] = 259.27 µm
Median, D (v, 0.5) [2]: 7.27 µm
Span [2]: Span = 1.637E+02
Uniformity [2]: Uniformity = 3.518E+01

SMILES: CN(C)CCC[C@@]1(c2ccc(F)cc2)OCc2cc(C#N)ccc21 [Escitalopram, S-(+)-1-[3-(dimethyl-amino)propyl]-1-(β-fluorophenyl)-5-phthalancarbonitrile oxalate]
single and multiple dose pharmacokinetics ([3]; dose range of 10 to 30 mg per day): linear and dose proportional
mean Tmax ([3]; single oral dose (20 mg tablet)): 5 ± 1.5 h

Dia.on % (10.0%) ([2]; Dist. Base: Volume): 7.877 µm
Dia.on % (20.0%) ([2]; Dist. Base: Volume): 10.941 µm
Dia.on % (35.0%) ([2]; Dist. Base: Volume): 15.114 µm
Dia.on % (70.0%) ([2]; Dist. Base: Volume): 29.4885 µm
Dia.on % (90.0%) ([2]; Dist. Base: Volume): 118.199 µm
Particle size, C.V. ([2]; Dist. Base: Volume): 161.24%
Particle size, Mean ([2]; Dist. Base: Volume): 45.505 µm
Particle size, Median ([2]; Dist. Base: Volume): 19.672 µm
SP. Area ([2]; Dist. Base: Volume): 3861 cm^2/cm^2
SMILES: CNCCC(Oc1ccc(C(F)(F)F)cc1)c1ccccc1.Cl (centres unmarked) [Fluoxetine HCl Provided by Supplier 1]

Dia.on % (10.0%) ([2]; Dist. Base: Volume): 5.668 µm
Dia.on % (20.0%) ([2]; Dist. Base: Volume): 9.337 µm
Dia.on % (35.0%) ([2]; Dist. Base: Volume): 14.546 µm
Dia.on % (70.0%) ([2]; Dist. Base: Volume): 42.5575 µm
Dia.on % (90.0%) ([2]; Dist. Base: Volume): 296.388 µm
Particle size, C.V. ([2]; Dist. Base: Volume): 144.70%
Particle size, Mean ([2]; Dist. Base: Volume): 86.383 µm
Particle size, Median ([2]; Dist. Base: Volume): 20.638 µm
SP. Area ([2]; Dist. Base: Volume): 5004 cm^2/cm^2
SMILES: CNCCC(Oc1ccc(C(F)(F)F)cc1)c1ccccc1.Cl (centres unmarked) [Fluoxetine HCl Provided by Supplier 2]

D (v, 0.9) [2]: D (v, 0.9) = 16.56 µm
D (v. 0.1) [2]: D (v. 0.1) = 0.85 […]mMedian,
Mean, D [4, 3] [2]: Mean, D [4, 3] = 11.02 µm
Median, D (v, 0.5) [2]: D (v, 0.5) = 4.44 µm
Span [2]: Span = 3.541E+00
Uniformity [2]: Uniformity = 1.980E+00
SMILES: Fc1ccc([C@@H]2CCNC[C@H]2COc2ccc3c(c2)OCO3)cc1 [Paroxetine, (−)-trans-4R-(4′-fluorophenyl)-3S[(3′,4′-methylenedioxyphenoxy)methyl]piperidine hydrochloride (hemihydrate)]
Cmax at steady state, mean [4, 6]: 61.7 ng/mL
Cmin at steady state, mean [4, 6]: 30.7 ng/mL
Tmax at steady state, mean [4, 6]: 5.2 h
t1/2 at steady state, mean [4, 6]: 21.0 h
steady state Cmax relative to prediction from single dose studies [4, 7]: about 6 times
steady state Cmin relative to prediction from single dose studies [4, 7]: ~14 times
steady state drug exposure based on AUC0-24 relative to prediction from single dose data [4, 7]: about 8 times
time to steady state Paroxetine concentrations ([4]; 30 mg tablets daily, most subjects): approximately 10 days
increase of AUC when administered with food [4, 8]: 6%
increase of Cmax when administered with food [4, 8]: 29%
time to reach peak plasma concentration ([4]; single dose with food): 4.9 h
time to reach peak plasma concentration ([4]; single dose without food): 6.4 h

SMILES: CN[C@H]1CC[C@@H](c2ccc(Cl)c(Cl)c2)c2ccccc21.Cl [Sertraline, (1S-cis)-4(3,4-dichlorophenyl)-1,2,3,4-tetrahydro-N-methyl-1-naphthalenamine hydrochloride]
Tmax ([5]; oral concentrate, single dose with food): 7.0 h
increase of Cmax with food ([5]; tablet, single dose with and without food): 25%
